Data on seven compounds can be found in patent US8778939B2, “Compounds” (Glaxo Group Limited, priority 2009, dated 2014).

A value given as a limit tells only on which side of the number the result lay.

Holding throughout (format): biochemical
In assay [1] the target is T1, 6His-Tev-LRRK2 (1326-2527) (Homo sapiens, UniProt Q5S007).
T1 construct: A LRRK2 cDNA encoding residues 1326-2527 was received from Dundee University; made in house; host or cells: Spodoptera frugiperda (Sf9) insect cells, baculovirus
T1 sequence (Q5S007 1326-2527): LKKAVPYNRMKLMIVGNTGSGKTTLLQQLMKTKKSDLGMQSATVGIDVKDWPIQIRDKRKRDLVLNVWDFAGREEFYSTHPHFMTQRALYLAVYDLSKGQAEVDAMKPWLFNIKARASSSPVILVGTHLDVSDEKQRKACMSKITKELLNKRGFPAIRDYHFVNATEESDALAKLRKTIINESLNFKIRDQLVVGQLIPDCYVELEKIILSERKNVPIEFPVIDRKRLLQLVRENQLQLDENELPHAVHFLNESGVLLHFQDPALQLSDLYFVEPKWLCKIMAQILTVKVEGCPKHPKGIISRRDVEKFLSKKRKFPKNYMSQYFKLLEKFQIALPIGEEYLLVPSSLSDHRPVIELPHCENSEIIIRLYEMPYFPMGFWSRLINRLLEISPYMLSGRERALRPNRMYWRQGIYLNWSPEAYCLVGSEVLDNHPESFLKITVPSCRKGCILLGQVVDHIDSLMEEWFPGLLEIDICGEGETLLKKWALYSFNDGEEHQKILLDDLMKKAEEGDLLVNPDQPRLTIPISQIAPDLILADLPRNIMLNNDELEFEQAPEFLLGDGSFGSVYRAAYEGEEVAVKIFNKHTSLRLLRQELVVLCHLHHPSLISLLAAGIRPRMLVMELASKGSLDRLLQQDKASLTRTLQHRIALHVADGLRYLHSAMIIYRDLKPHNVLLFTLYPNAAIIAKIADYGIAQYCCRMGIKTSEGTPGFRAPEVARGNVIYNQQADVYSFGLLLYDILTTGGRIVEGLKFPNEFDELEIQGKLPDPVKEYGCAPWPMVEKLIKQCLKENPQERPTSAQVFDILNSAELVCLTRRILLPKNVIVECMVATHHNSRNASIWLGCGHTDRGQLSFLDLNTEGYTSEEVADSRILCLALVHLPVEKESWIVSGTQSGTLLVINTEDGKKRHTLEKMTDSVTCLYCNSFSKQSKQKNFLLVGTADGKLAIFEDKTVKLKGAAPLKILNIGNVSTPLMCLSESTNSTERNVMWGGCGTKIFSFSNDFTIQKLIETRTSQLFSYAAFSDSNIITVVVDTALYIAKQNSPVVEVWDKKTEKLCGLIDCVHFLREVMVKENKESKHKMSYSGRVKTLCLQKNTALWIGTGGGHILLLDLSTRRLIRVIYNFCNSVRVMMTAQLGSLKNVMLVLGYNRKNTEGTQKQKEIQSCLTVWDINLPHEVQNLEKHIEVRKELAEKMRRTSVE
Put plainly: LRRK2 peptide substrate assay. The conditions noted are these: Biotin-LRRKtide peptide substrate, ATP at Km; read-out: pIC50 in the LRRK2 peptide substrate assay (converted). In short, it runs like this: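 Recombinant 6His-Tev-LRRK2 (1326-2527), 80 nM in enzyme solution, in pH 7.2 Hepes/MgCl2 buffer with DTT; compounds in 1:4 serial dilution from 30 μM top final. Reaction 1-2 h at room temperature, stopped with EDTA; phospho-moesin (Thr558) antibody with Eu/APC TR-FRET detection after 2 h (ex 330, em 620/665 nm).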

Assay [2] concerns the target T1, 6His-Tev-LRRK2 (1326-2527). Put plainly: LRRK2 AlphaScreen protein substrate assay. To be noted: GST-PS-Moesin (400-577) substrate, ATP at Km; read-out: pIC50 in the LRRK2 alphascreen protein substrate assay (converted). How it is done:
a) 100 nl of a 1:4 serial dilution of test compound with a top final assay concentration of 30 μM is added to certain wells in a low volume 384 well black plate. 100 nl of DMSO is used in certain wells as controls.
b) 3 μl enzyme solution (80 nM purified recombinant 6His-Tev-LRRK2 (1326-2527) in assay buffer: 50 mM Hepes (pH 7.2), 10 mM MgCl2, 150 mM NaCl, 5% glycerol, 0.0025% triton X-100 and 1 mM DTT) is added to certain wells.
Plates are then incubated for a further 1-2 hours at room temperature (incubation time varies depending upon rate and linearity of reaction with differing enzyme batches).
d) 6 μl detection solution (1:250 dilution of AlphaLisa Protein A Acceptor beads (PerkinElmer), 1:64 dilution of AlphaLisa Gluthathione Donor beads (PerkinElmer) and 1:600 dilution (dilution determined on a batch to batch basis) of Phospho-Ezrin (Thr567)/Radixin (Thr564)/Moesin (Thr558) Polyclonal Antibody (New England Biolabs) in a buffer: 50 mM Hepes (pH 7.5), 250 mM NaCl, 60 mM EDTA, 1% PEG and 0.01% Brij 35) is added to each well. Plates are then incubated for a further 2 hours at room temperature in the dark before reading on an EnVision™ plate reader with AlphaScreen HTS turbo option module and AlphaScreen settings. Data is analysed using ActivityBase software (IDBS).

The target in assay [3] is T1, 6His-Tev-LRRK2 (1326-2527). Put plainly: LRRK2 AlphaScreen desensitised protein substrate assay. The conditions noted are these: excess of ATP present (2 mM ATP); read-out: pIC50 in the LRRK2 alphascreen desensitised protein substrate assay (converted). The essentials: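 Purified 6His-Tev-LRRK2 (1326-2527), 80 nM in enzyme solution, in pH 7.2 Hepes buffer with MgCl2 and DTT; compound 1:4 dilutions, top final 30 μM. ATP 2 mM in substrate solution, 20 min at room temperature. Phospho-ERM (Thr567/564/558) detected by AlphaScreen.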

As for `O=C(Nc1cccnc1)c1cc(Br)ccc1OCc1cccc(Cl)c1` [Example 13, 5-Bromo-2-{[(3-chlorophenyl)methyl]oxy}-N-3-pyridinylbenzamide], the IC50 in assay [1] is at most 100 nM; in assay [2], at most 100 nM; in assay [3], over 25100 nM.

Regarding `N#Cc1cccc(COc2ccc(Br)cc2C(=O)Nc2cccnc2)c1` [Example 15, 5-Bromo-2-{[(3-cyanophenyl)methyl]oxy}-N-3-pyridinylbenzamide], the IC50 in assay [1] was at most 100 nM; in assay [2], at most 100 nM; in assay [3] it was over 25100 nM.

On to `O=C(Nc1cccnc1)c1cc(O)ccc1OCc1ccccc1` [Example 29, 5-Hydroxy-2-[(phenylmethyl)oxy]-N-3-pyridinylbenzamide], for which the values for the IC50 in assay [1], in assay [2] and in assay [3] were at most 100 nM, at most 100 nM and at most 20000 nM, respectively.

In the case of `CN(C)CCOc1ccc(OCc2ccccc2)c(C(=O)Nc2cccnc2)c1` [Example 30, 5-{[2-(Dimethylamino)ethyl]oxy}-2-[(phenylmethyl)oxy]-N-3-pyridinylbenzamide], the IC50 was at most 100 nM in assay [1], at most 100 nM in assay [2] and at most 20000 nM in assay [3].

Take `CN1CCC(Oc2ccc(OCc3ccccc3)c(C(=O)Nc3cccnc3)c2)CC1` [Example 31, 5-[(1-Methyl-4-piperidinyl)oxy]-2-[(phenylmethyl)oxy]-N-3-pyridinylbenzamide]: the IC50 is at most 100 nM in assay [1], at most 100 nM in assay [2] and at most 20000 nM in assay [3].

As for `CN1CCN(c2ccc(OCc3ccccc3)c(C(=O)Nc3cccnc3)c2)CC1` [Example 32, 5-(4-Methyl-1-piperazinyl)-2-[(phenylmethyl)oxy]-N-3-pyridinylbenzamide], the IC50 in assay [1] is at most 10 nM; in assay [2], at most 100 nM; in assay [3], at most 20000 nM.

Turning to `O=C(Nc1cccnc1)c1cc(N2CCCCC2)ccc1OCc1ccccc1` [Example 33, 2-[(Phenylmethyl)oxy]-5-(1-piperidinyl)-N-3-pyridinylbenzamide], the IC50 in assay [1] is at most 100 nM; in assay [2] it was at most 100 nM; in assay [3], at most 20000 nM.
